Measurements: patent US20110077294A1, “R-(-) / S-(+)-7-[3-N SUBSTITUTED AMINO-2 HYDROXYPROPOXY] FLAVONES” (priority 2006, published 2011)
Marks after values point to notes of the source that are not given here.

Key:
Type in all cases: in vivo
C57BL/KsBom-db/db mice [1] = experiment: Blood glucose profile of db/db mice during daily treatment (antihyperglycemic activity); settings: for Blood glucose % change compared to control, day 1: day 1, vs sham; for Blood glucose % change compared to control, day 2: day 2, vs sham; for Blood glucose % change compared to control, day 3: day 3, vs sham; for Blood glucose % change compared to control, day 4: day 4, vs sham; for Blood glucose % change compared to control, day 5: day 5, vs sham; for Blood glucose % change compared to control, day 6: day 6, vs sham; for Blood glucose % change compared to control, day 7: day 7, vs sham; for Blood glucose % change compared to control, day 8: day 8, vs sham; for Blood glucose % change compared to control, day 9: day 9, vs sham; for Comparative antihyperglycemic activity: Average Fall: day given in brackets, in %
Experimental: (§1) C57BL/KsBom-db/db mice (12-18 weeks old), weighing around 35+g bred in the animal house of CDRI, Lucknow, were used in the present experiments. The mice were housed in groups of 3 to 5 (same sex) in a room controlled for temperature (23±2.0 ° C.) and 12/12 hours light/dark cycle (lights on at 6.00 am). Body weight of each animal was measured daily from day 1 to day 10 of the experiment. All animals had free access to fresh water and normal pellet diet except on the day of the postprandial protocol (day 6) and during the overnight fast before the OGTT on day 10. The animals always had access to water during experimental periods. Blood glucose was checked every morning up till day 10. On day 10 an oral glucose tolerance test (OGTT) was performed after an overnight fasting. Blood glucose was measured at −30.0 min and test compounds were administered. The blood glucose was again measured at 0 min just post treatment and at this juncture glucose solution was given at a dose of 3 gm/kg to all the groups including the vehicle treated group. The blood glucose levels were checked at 30 min, 60 min, 90 min and 120 min post glucose administration. The data was analyzed for its significance on Prism software.

C57BL/KsBom-db/db mice [2] = experiment: Oral glucose tolerance test (OGTT) on day 10 in db/db mice; settings: for Blood glucose profile, 0 min post glucose load / Blood glucose % change compared to control, 0 min post glucose load: OGTT day 10, 0 min; for Blood glucose profile, 30 min post glucose load / Blood glucose % change compared to control, 30 min post glucose load: OGTT day 10, 30 min; for Blood glucose profile, 60 min post glucose load / Blood glucose % change compared to control, 60 min post glucose load: OGTT day 10, 60 min; for Blood glucose profile, 90 min post glucose load / Blood glucose % change compared to control, 90 min post glucose load: OGTT day 10, 90 min; for Blood glucose profile, 120 min post glucose load / Blood glucose % change compared to control, 120 min post glucose load: OGTT day 10, 120 min; for Blood glucose profile, −30 min post glucose load / Blood glucose % change compared to control, −30 min post glucose load: OGTT day 10, −30 min; for Comparative antihyperglycemic activity: Day 10 (OGTT): in % (unit assumed)
Experimental: as §1

C57BL/KsBom-db/db mice [3] = experiment: Serum lipid profile of treated db/db mice (antidyslipidemic activity); settings: 25 mg/kg
Experimental: as §1

C57BL/KsBom-db/db mice [4] = experiment: as above
[5] = db/db mice, 10 mg/kg, statistically insignificant
[6] = db/db mice, test dose 10 mg/kg, in %
[7] = db/db mice, test dose 25 mg/kg, in %

## CC(C)(C)NC[C@H](O)COc1ccc2c(=O)cc(-c3cc(OCc4ccccc4)cc(OCc4ccccc4)c3)oc2c1 [S-002-853 (S), (S)-(+)-7-(3-tert-Butylamino-2-hydroxypropoxy)-3′,5′-dibenzyloxyflavone]
C57BL/KsBom-db/db mice [1]; 10 mg/kg
  fall in blood glucose profile (in words): not statistically significant on any day post treatment
  Blood glucose, day 1 post treatment: 19.8 ± 2.47 mM
  Blood glucose % change compared to control, day 1: −0.9%
  Blood glucose, day 2 post treatment: 18.5 ± 2.34 mM
  Blood glucose % change compared to control, day 2: −9.60%
  Blood glucose, day 3 post treatment: 17.9 ± 2.14 mM
  Blood glucose % change compared to control, day 3: −18.6%
  Blood glucose, day 4 post treatment: 15.3 ± 2.96 mM
  Blood glucose % change compared to control, day 4: −26.8%
  Blood glucose, day 5 post treatment: 13.8 ± 2.98 mM
  Blood glucose % change compared to control, day 5: −35.0%
  Blood glucose, day 6 post treatment: 13.1 ± 3.41 mM
  Blood glucose % change compared to control, day 6: −40.7%
  Blood glucose, day 7 post treatment: 11.8 ± 3.55 mM
  Blood glucose % change compared to control, day 7: −42.0%
  Blood glucose, day 8 post treatment: 12.1 ± 3.39 mM
  Blood glucose % change compared to control, day 8: −42.2%
  Blood glucose, day 9 post treatment: 14.2 ± 2.98 mM
  Blood glucose % change compared to control, day 9: −39.4%
C57BL/KsBom-db/db mice [1]; 25 mg/kg
  antihyperglycemic and antidyslipidemic/antihyperlipidemic activity (in words): significant antihyperglycemic and antidyslipidemic activity
  Blood glucose, day 1 post treatment: 22.4 ± 1.24 mM
  Blood glucose % change compared to control, day 1: +0.20%
  Blood glucose, day 2 post treatment: 16.6 ± 3.85 mM
  Blood glucose % change compared to control, day 2: −33.6%
  Blood glucose, day 3 post treatment: 12.9 ± 3.00 mM
  Blood glucose % change compared to control, day 3: −39.5%
  Blood glucose, day 4 post treatment: 10.6 ± 2.89 mM
  Blood glucose % change compared to control, day 4: −54.9%
  Blood glucose, day 5 post treatment: 8.80 ± 3.84 mM
  Blood glucose % change compared to control, day 5: −55.6%
  Blood glucose, day 6 post treatment: 7.60 ± 3.46 mM
  Blood glucose % change compared to control, day 6: −61.1%
  Blood glucose, day 7 post treatment: 10.6 ± 2.20 mM
  Blood glucose % change compared to control, day 7: −52.2%
  Blood glucose, day 8 post treatment: 8.30 ± 1.13 mM
  Blood glucose % change compared to control, day 8: −60.0%
  Blood glucose, day 9 post treatment: 7.90 ± 1.30 mM
  Blood glucose % change compared to control, day 9: −58.5%
C57BL/KsBom-db/db mice [1]; 25 mg/kg, day 6 of treatment
  maximum percentage fall in blood glucose: around 61.1%
C57BL/KsBom-db/db mice [1]; 25 mg/kg, listed as S-isomer
  antihyperglycemic and antidyslipidemic/antihyperlipidemic activity (in words): marked antihyperglycemic and antihyperlipidemic effect compared to racemic mixture
C57BL/KsBom-db/db mice [1]; test dose 10 mg/kg
  Comparative antihyperglycemic activity: Average Fall: 42.2*
C57BL/KsBom-db/db mice [1]; test dose 25 mg/kg
  Comparative antihyperglycemic activity: Average Fall: 61.1**
C57BL/KsBom-db/db mice [2]; 10 mg/kg
  Blood glucose profile, 0 min post glucose load: 9.23 ± 3.10 mM
  Blood glucose profile, 30 min post glucose load: 19.3 ± 5.52 mM
  Blood glucose profile, 60 min post glucose load: 18.4 ± 5.39 mM
  Blood glucose profile, 90 min post glucose load: 12.1 ± 3.81 mM
  Blood glucose profile, 120 min post glucose load: 9.23 ± 3.10 mM
  Blood glucose profile, −30 min post glucose load: 8.37 ± 2.98 mM
C57BL/KsBom-db/db mice [2]; 10 mg/kg, vs sham
  Blood glucose % change compared to control, 0 min post glucose load: −25.7%
  Blood glucose % change compared to control, 30 min post glucose load: −32.8%
  Blood glucose % change compared to control, 60 min post glucose load: −27.2%
  Blood glucose % change compared to control, 90 min post glucose load: −26.9%
  Blood glucose % change compared to control, 120 min post glucose load: −11.7%
  Blood glucose % change compared to control, −30 min post glucose load: −23.9%
C57BL/KsBom-db/db mice [2]; 10 mg/kg, not statistically significant
  effect of 10 days treatment on glucose tolerance: around 27.6%
C57BL/KsBom-db/db mice [2]; 25 mg/kg
  Blood glucose profile, 0 min post glucose load: 4.81 ± 0.35 mM
  Blood glucose profile, 30 min post glucose load: 17.8 ± 1.24 mM
  Blood glucose profile, 60 min post glucose load: 16.3 ± 1.82 mM
  Blood glucose profile, 90 min post glucose load: 13.0 ± 1.66 mM
  Blood glucose profile, 120 min post glucose load: 8.83 ± 0.72 mM
  Blood glucose profile, −30 min post glucose load: 4.57 ± 0.30 mM
C57BL/KsBom-db/db mice [2]; 25 mg/kg, vs sham
  Blood glucose % change compared to control, 0 min post glucose load: −41.8%
  Blood glucose % change compared to control, 30 min post glucose load: −38.6%
  Blood glucose % change compared to control, 60 min post glucose load: −48.3%
  Blood glucose % change compared to control, 90 min post glucose load: −45.5%
  Blood glucose % change compared to control, 120 min post glucose load: −58.2%
  Blood glucose % change compared to control, −30 min post glucose load: −43.5%
  effect of 10 days treatment on glucose tolerance (overall improvement in OGTT): around 45.3%
C57BL/KsBom-db/db mice [2]; test dose 10 mg/kg
  Comparative antihyperglycemic activity: Day 10 (OGTT): 27.6*
C57BL/KsBom-db/db mice [2]; test dose 25 mg/kg
  Comparative antihyperglycemic activity: Day 10 (OGTT): 45.3**
C57BL/KsBom-db/db mice [3]
  Serum lipid profile: Cholesterol: 185 ± 51.4 mg/dL
  Serum lipid profile: HDL-Chol: 49.5 ± 8.36 mg/dL
  Serum lipid profile: Triglycerides: 115 ± 2.82 mg/dL
C57BL/KsBom-db/db mice [3]; vs sham
  Cholesterol % change compared to control: −21.8%
  HDL-Chol % change compared to control: +33.2%
  Triglycerides % change compared to control: −14.5%
C57BL/KsBom-db/db mice [4]; 25 mg/kg body weight
  enhancement of HDL-C as compared to the racemic compound: more than two folds
C57BL/KsBom-db/db mice [4]; db/db mice, 10 mg/kg
  Serum lipid profile: Cholesterol: 87.5 ± 3.00 mg/dL
  Serum lipid profile: HDL-Chol: 66.4 ± 2.87 mg/dL
  Serum lipid profile: Triglycerides: 110 ± 4.08 mg/dL
C57BL/KsBom-db/db mice [4]; db/db mice, 10 mg/kg, vs sham
  Cholesterol % change compared to control: −16.3%
  HDL-Chol % change compared to control: +17.4%
  Triglycerides % change compared to control: −17.9%
C57BL/KsBom-db/db mice [4]; [5]
  elevation in HDL-cholesterol level than control: +17.4%
  lowering of serum cholesterol: around 16.3%
  lowering of serum triglycerides: ~17.9%
C57BL/KsBom-db/db mice [4]; db/db mice, 25 mg/kg
  decrease in LDL-cholesterol level: around 29.4%
  elevation in HDL-cholesterol level than control: 33.2%
  lowering of serum cholesterol: around 21.8%
  lowering of serum triglycerides: ~14.5%
C57BL/KsBom-db/db mice [4]; db/db mice, test dose 10 mg/kg
  Comparative antihyperlipidemic activity: HDL-C: +17.4^ns
C57BL/KsBom-db/db mice [4]; [6]
  Comparative antihyperlipidemic activity: T-Chol: 16.3*
  Comparative antihyperlipidemic activity: TG: 17.9*
C57BL/KsBom-db/db mice [4]; [7]
  Comparative antihyperlipidemic activity: HDL-C: +33.2*
  Comparative antihyperlipidemic activity: T-Chol: 27.8*
  Comparative antihyperlipidemic activity: TG: 14.5**
